Results reported in EPA's ToxRefDB 2.

Assays:
mouse [1] = conditions: Subchronic oral toxicity in rodents, cd1, Gavage/Intubation, dose end: 13 week, group: systemic, systemic / clinical chemistry / alanine aminotransferase (alt/sgpt) / alanine aminotransferase (alt/sgpt) + systemic / clinical chemistry / …
rat [2] = conditions: Sub-acute repeat dose toxicity, sprague dawley, Oral, Gavage/Intubation, dose end: 28 day, group: systemic
rat [3] = conditions: Prenatal developmental toxicity study, sprague dawley, Oral, Gavage/Intubation, dose end: 17 GD
dog [4] = conditions: Chronic toxicity; beagle; Oral; Capsule; dose end: 1 year; group: systemic; systemic / in life observation / body weight / body weight + systemic / in life observation / clinical signs / vomitting + systemic / in …
dog [5] = conditions: Chronic toxicity; beagle; Oral; Capsule; dose end: 6 month; group: systemic; systemic / clinical chemistry / potassium / potassium + systemic / in life observation / body weight / body weight + systemic / in life …
mouse [6] = conditions: Sub-acute repeat dose toxicity, cd1, Oral, Gavage/Intubation, dose end: 4 week, group: systemic
dog [7] = conditions: Sub-acute repeat dose toxicity; beagle; Oral; Gavage/Intubation; dose end: 14 day; group: systemic; systemic / in life observation / clinical signs / emesis + systemic / in life observation / clinical signs / salivation + systemic / in life…
dog [8] = conditions: Subchronic oral toxicity in nonrodent, beagle, Gavage/Intubation, dose end: 90 day, group: systemic
rat [9] = conditions: Sub-acute repeat dose toxicity; Oral; Gavage/Intubation; dose end: 7 day; group: systemic; systemic / organ weight / adrenal gland / absolute + systemic / organ weight / liver / absolute + systemic / pathology microscopic / kidney…
dog [10] = conditions: Sub-acute repeat dose toxicity, beagle, Oral, Gavage/Intubation, dose end: 7 day, group: systemic
mouse [11] = conditions: Sub-acute repeat dose toxicity, Oral, Gavage/Intubation, dose end: 7 day, group: systemic
rat [12] = conditions: Sub-acute repeat dose toxicity, Oral, Gavage/Intubation, dose end: 14 day, group: systemic
mouse [13] = conditions: Fertility (Segment I), Oral, Gavage/Intubation, dose end: 1 generation
rat [14] = conditions: Sub-acute repeat dose toxicity; Oral; Gavage/Intubation; dose end: 7 day; group: systemic; systemic / pathology microscopic / kidney / hyaline droplet + systemic / pathology microscopic / kidney / regeneration + systemic / …
dog [15] = conditions: Chronic toxicity, beagle, Oral, Gavage/Intubation, dose end: 274 day, group: systemic
rat [16] = conditions: Sub-acute repeat dose toxicity; Oral; Feed; dose end: 14 day; group: systemic; systemic / in life observation / clinical signs / defecation + systemic / in life observation / clinical signs / hunched posture + systemic…
mouse [17] = conditions: Sub-acute repeat dose toxicity, Oral, Gavage/Intubation, dose end: 30 day, group: systemic
rat [18] = conditions: Sub-acute repeat dose toxicity; Oral; Gavage/Intubation; dose end: 7 day; group: systemic; systemic / clinical chemistry / cholesterol / cholesterol + systemic / clinical chemistry / gamma glutamyl transferase (ggt) / gamma …
[19] = systemic / clinical chemistry / alanine aminotransferase (alt/sgpt) / alanine aminotransferase (alt/sgpt) + systemic / clinical chemistry / …
[20] = systemic / clinical chemistry / alanine aminotransferase (alt/sgpt) / alanine aminotransferase (alt/sgpt) + systemic / in life observation…
[21] = group: developmental, systemic / in life observation / body weight / fetal weight
[22] = group: maternal, reproductive / reproductive performance / implantations / implantations + reproductive / reproductive performance / postimplantation loss / …
[23] = group: maternal, systemic / in life observation / body weight / body weight + systemic / in life observation / clinical signs / piloerection + systemic / in …
[24] = systemic / in life observation / clinical signs / alopecia + systemic / in life observation / clinical signs / external lesion(s) + systemic…
[25] = systemic / in life observation / clinical signs / scabbing + systemic / in life observation / body weight / body weight + systemic / in life…
[26] = systemic / clinical chemistry / alkaline phosphatase (alp/alk) / alkaline phosphatase (alp/alk)
[27] = systemic / clinical chemistry / alanine aminotransferase (alt/sgpt) / alanine aminotransferase (alt/sgpt) + systemic / pathology microscopic…
[28] = systemic / clinical chemistry / alkaline phosphatase (alp/alk) / alkaline phosphatase (alp/alk) + systemic / clinical chemistry / …
[29] = systemic / clinical chemistry / creatinine / creatinine + systemic / clinical chemistry / potassium / potassium + systemic / in life …
[30] = systemic / organ weight / liver / absolute
[31] = systemic / clinical chemistry / cytochrome p450, nos / cytochrome p450, nos + systemic / clinical chemistry / glucose / glucose + systemic…
[32] = systemic / clinical chemistry / cytochrome p450, nos / cytochrome p450, nos + systemic / in life observation / clinical signs / lacrimation …
[33] = group: maternal, reproductive / reproductive performance / mating / mating + reproductive / reproductive performance / precoital interval / precoital …
[34] = group: parental, systemic / in life observation / body weight / body weight gain
[35] = systemic / in life observation / clinical signs / defecation (diarrhea) + systemic / in life observation / clinical signs / soft stools
[36] = systemic / in life observation / clinical signs / defecation (diarrhea) + systemic / in life observation / clinical signs / soft stools + …
[37] = systemic / organ weight / liver / absolute + systemic / pathology microscopic / liver / hypertrophy

## CCc1c(C(=O)NN2CCCCC2)nn(-c2ccc(Cl)cc2Cl)c1-c1ccc(Br)cc1 [Surinabant]
Mouse [1]
  LEL: 100 mg/kg/day
  LOAEL: > 1000 mg/kg/day
  NEL: < 100 mg/kg/day
  NOAEL: ≥ 1000 mg/kg/day
Rat [2]; [19]
  LOAEL: > 300 mg/kg/day
  NOAEL: ≥ 300 mg/kg/day
Rat [2]; [20]
  LEL: 30 mg/kg/day
  NEL: < 30 mg/kg/day
Rat [3]; [21]
  LEL: 100 mg/kg/day
  LOAEL: 100 mg/kg/day
  NEL: 10 mg/kg/day
  NOAEL: 10 mg/kg/day
Rat [3]; [22]
  LOAEL: 100 mg/kg/day
  NOAEL: 10 mg/kg/day
Rat [3]; [23]
  LEL: 10 mg/kg/day
  NEL: < 10 mg/kg/day
Dog [4]
  LEL: 1 mg/kg/day
  LOAEL: 1 mg/kg/day
  NEL: < 1 mg/kg/day
  NOAEL: < 1 mg/kg/day
Dog [5]
  LEL: 1.5 mg/kg/day
  LOAEL: 1.5 mg/kg/day
  NEL: < 1.5 mg/kg/day
  NOAEL: < 1.5 mg/kg/day
Mouse [6]; [24]
  LOAEL: > 4000 mg/kg/day
  NOAEL: ≥ 4000 mg/kg/day
Mouse [6]; [25]
  LEL: 1000 mg/kg/day
  NEL: < 1000 mg/kg/day

## CCc1nn(CCO)c(CC)c1Oc1cc(C#N)cc(C#N)c1 [Lersivirine]
Dog [7]
  LEL: 5 mg/kg/day
  LOAEL: > 150 mg/kg/day
  NEL: < 5 mg/kg/day
  NOAEL: ≥ 150 mg/kg/day
Dog [8]; [19]
  LOAEL: > 60 mg/kg/day
  NOAEL: ≥ 60 mg/kg/day
Dog [8]; [26]
  LEL: 7 mg/kg/day
  NEL: < 7 mg/kg/day
Rat [9]
  LOAEL: > 35 mg/kg/day
  NEL: < 35 mg/kg/day
  NOAEL: ≥ 35 mg/kg/day
Dog [10]; [27]
  LOAEL: > 150 mg/kg/day
  NOAEL: ≥ 150 mg/kg/day
Dog [10]; [28]
  LEL: 10 mg/kg/day
  NEL: < 10 mg/kg/day
Mouse [11]; [29]
  LOAEL: > 750 mg/kg/day
  NOAEL: ≥ 750 mg/kg/day
Mouse [11]; [30]
  LEL: 70 mg/kg/day
  NEL: < 70 mg/kg/day
Rat [12]; [31]
  LOAEL: > 300 mg/kg/day
  NOAEL: ≥ 300 mg/kg/day
Rat [12]; [32]
  LEL: 20 mg/kg/day
  NEL: < 20 mg/kg/day
Mouse [13]; [33]
  LEL: 700 mg/kg/day
  LOAEL: > 700 mg/kg/day
  NEL: 200 mg/kg/day
  NOAEL: ≥ 700 mg/kg/day
Mouse [13]; [34]
  LEL: 200 mg/kg/day
  LOAEL: > 700 mg/kg/day
  NEL: 70 mg/kg/day
  NOAEL: ≥ 700 mg/kg/day
Rat [14]
  LEL: 23 mg/kg/day
  LOAEL: > 100 mg/kg/day
  NEL: < 23 mg/kg/day
  NOAEL: ≥ 100 mg/kg/day
Dog [15]; [35]
  LEL: 5 mg/kg/day
  NEL: < 5 mg/kg/day
Dog [15]; [36]
  LOAEL: > 45 mg/kg/day
  NOAEL: ≥ 45 mg/kg/day
Rat [16]
  LOAEL: > 1500 mg/kg/day
  NEL: 750 mg/kg/day
  NOAEL: ≥ 1500 mg/kg/day
Mouse [17]; [19]
  LOAEL: > 500 mg/kg/day
  NOAEL: ≥ 500 mg/kg/day
Mouse [17]; [37]
  LEL: 50 mg/kg/day
  NEL: < 50 mg/kg/day
Rat [18]
  LOAEL: > 35 mg/kg/day
  NEL: < 35 mg/kg/day
  NOAEL: ≥ 35 mg/kg/day
